Results as given in PMC8592027, “Structure-Guided Design of D-Galactal Derivatives with High Affinity and Selectivity for the Galectin-8 N-Terminal Domain” (ACS Medicinal Chemistry Letters, 2021).
“Also recorded” adds a separate entry of the source. Like-named read-outs stand apart in the source and are kept apart here.

Tests used:
[1] = target: T1, galectin-8N (galectin-8 N-terminal domain) (Homo sapiens, UniProt O00214); assay: Competitive fluorescence polarization assay, galectin-8N; format: binding; conditions: for Kd: mean ± SEM of n = 4–8
T1 construct: selective ligand for the galectin-8 N-terminal domain (galectin-8N); made in house
T1 sequence (O00214 19-152 limits assumed): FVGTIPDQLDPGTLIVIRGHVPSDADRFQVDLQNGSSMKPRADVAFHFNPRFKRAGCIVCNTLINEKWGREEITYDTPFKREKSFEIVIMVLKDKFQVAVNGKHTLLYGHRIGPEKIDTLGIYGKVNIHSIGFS
Procedure: All synthesized D-galactal derivatives had higher binding affinities for galectin-8N than D-galactal 3.
(§1) 1. Competitive fluorescence polarization experiments:
(§2) Human galectins -1, -3, -4N, -4C, -7, -8N, -9N, and -9C were expressed and purified as previously described 30,41. Fluorescence polarisation experiments were performed using the PHERAstar FS plat e reader (software version 2.10 R3), and the fluorescence anisotropy of fluorescein tagged probes was measured by excitation at 485 nm and emission at 520 nm. The specific conditions for galectins -1, -3, -4N, -4C, -7, -8N, -9N, and -9C were kept as report ed30,41,42. The synthesised compounds were dissolved in pure DMSO at 20 mM concentration and diluted in PBS to 3-6 different concentrations, and each concentration was tested in duplicate. The highest inhibitor concentrations tested were 1.5 mM. The

K562 cancer cell line = assay: MTS metabolic activity (cytotoxicity) assay, K562; format: cell-based; conditions: concentrations 1 to 100 μM, 24 hours
Procedure: (§3) We have investigated the cytotoxicity of the compounds 1, 6a, and 6c via a (3-(4,5-dimethylthiazol-2-yl)-5-(3-carboxymethoxyphenyl)-2-(4-sulfophenyl)-2H-tetrazolium) (MTS) assay in K562 and MDA-MB-231 cancer cell lines to establish the direct antitumor activity of compounds, as well as human peripheral blood mononuclear cells (PBMCs), to evaluate their safety.
(§4) Metabolic activity assay:
(§5) The metabolic activities of the cell lines were determined using the CellTiter 96 Aqueous One Solution cell proliferation assay (MTS Reagents, Promega, Madison, WI, USA), according to the manufacturer instructions. Briefly, the cells were treated with the selected compounds in 0.1% dimethyl sulfoxide (DMSO; vehicle), 0.1% DMSO (control vehicle), or medium (control) and seeded at a cell density of 5,500 cells/well (MDA-MB-231 cells) or 4 x 10^4 cells/well (K562 cells), 7000 cells/well (HepG2 cells) or 1 x 10^5 cells/well (human PBMCs) in duplicates (MDA-MB-231, K562, and […]) or triplicates for HepG2 cells (100 µL), in sterile 96-well plates. For the MDA-MB-231 and HepG2, the cells were left to adhere overnight before adding the compounds. The plates were then incubated for 24 hours (48 hours for HepG2), after which 15 µL of MTS reagent was added to each well. After 30-90 minute of incubation, the absorbance was measured at 492 nm using a microplate reader (Synergy HTX Multi-Mode; BioTek Instruments, Inc., VT, USA). […]
(§6) Bead Array Human inflammatory cytokine Kit (content: IL-1, IL-6, IL-8, IL-10, IL-12p). The flow cytometric analyses were performed on an Attune NxT flow cytometer (Thermo Fisher Scientific, […]
(§7) Data are represented as means ± standard deviation (SD) from three representative independent experiments.
(§8) All experiments were performed at least twice, with average values expressed as means ± SD. All data were analyzed with the statistical software GraphPad Prism 8.0 (GraphPad Software, Inc., CA, USA). by one-way ANOVA followed with Dunnett’s multiple compar ison test. Differences were considered non-significant for p > 0.05, and significant (*) for p < 0.05. […]

[2] = test system: MDA-MB-231 cancer cell line; assay: MTS metabolic activity (cytotoxicity) assay, MDA-MB-231; format: cell-based, human; conditions: concentrations 1 to 100 μM, 24 hours
Procedure: as §3, §4, §5, §6, §7, §8

[3] = test system: human peripheral blood mononuclear cells (PBMCs); assay: MTS metabolic activity (cytotoxicity) assay, PBMCs; format: cell-based; conditions: concentrations up to 100 μM, 24 hours
Procedure: as §3, §4, §5, §6, §7, §8

[4] = test system: IL-6 secretion from MDA-MB-231 cells; assay: Multiplexed cytokine assay, IL-6 secretion; format: cell-based, human; conditions: 24 hours, vs untreated cells
Procedure: (§9) Figure 5 Effect of compounds 1 and 6a on the secretion of IL-6 and IL-8 expressed in pg/mL. The effects were measured after incubating the cells with the compounds at 10 and 100 μM. Compounds 1 and 6a reduce the secretion of IL-6 and IL-8 in a dose-dependent manner at 100 and 10 μM. Results shown are means ± SEM of three independent experiments. ns, not significant (p > 0.05); *p < 0.05 versus untreated controls.
(§10) Metabolic activity assay: […]
(§11) Briefly, the cells were treated with the selected compounds in 0.1% dimethyl sulfoxide (DMSO; vehicle), 0.1% DMSO (control vehicle), or medium (control) and seeded at a cell density of 5,500 cells/well (MDA-MB-231 cells) or 4 x 10^4 cells/well (K562 cells), 7000 cells/well (HepG2 cells) or 1 x 10^5 cells/well (human PBMCs) in duplicates (MDA-MB-231, K562, and […]) or triplicates for HepG2 cells (100 µL), in sterile 96-well plates. For the MDA-MB-231 and HepG2, the cells were left to adhere overnight before adding the compounds. The plates were then incubated for 24 hours (48 hours for HepG2), after which 15 µL of MTS reagent was added to each well. […]
(§12) HTX Multi-Mode; BioTek Instruments, Inc., VT, USA).
(§13) Multiplexed cytokine assay:
(§14) MDA-MB-231 cells were seeded in 96-well flat-bottom plates at a density of 2 x 10^4 cells/well in 100 µL of medium and allowed to adhere for 24 hours at 37 °C and 5% CO2. The medium was then replaced by a fresh medium containing the desired concentrations of compounds 1 and 6a, after which the cells were cells incubated again for 24 hours at 37 °C and 5% CO2. Cell-free supernatants were collected and stored at – 80 °C before the analysis. The cytokines secretion was assessed by BD Cytometric Bead Array Human inflammatory cytokine Kit (content: IL-1, IL-6, IL-8, IL-10, IL-12p). The flow cytometric analyses were performed on an Attune NxT flow cytometer (Thermo Fisher Scientific, Waltham, MA, USA). Standard curves were generated using recombinant cytokines provided in the kit, and the data were analyzed with FlowJo software (Tree Star, Inc., Ashland, OR). The results are expressed in pg/mL. Data are represented as means ± standard deviation (SD) from three representative independent experiments.
(§15) All experiments were performed at least twice, with average values expressed as means ± SD. All data were analyzed with the statistical software GraphPad Prism 8.0 (GraphPad Software, Inc., CA, USA). by one-way ANOVA followed with Dunnett’s multiple compar ison test. Differences were considered non-significant for p > 0.05, and significant (*) for p < 0.05.

[5] = test system: IL-8 secretion from MDA-MB-231 cells; assay: Multiplexed cytokine assay, IL-8 secretion; format: cell-based, human; conditions: 24 hours, vs untreated cells
Procedure: as §9, §10, §11, §12, §13, §14, §15

[6] = target: T1, galectin-8N (galectin-8 N-terminal domain); conditions: cited from earlier work
galectin-1 = target: T2, galectin-1 (Homo sapiens, UniProt P09382); assay: Competitive fluorescence polarization assay, galectin-1; format: binding; conditions: mean ± SEM of n = 4–8
T2 construct: made in house
Procedure: as §1, §2

galectin-3 = target: T3, galectin-3 (Homo sapiens, UniProt P17931); assay: Competitive fluorescence polarization assay, galectin-3; format: binding; conditions: mean ± SEM of n = 4–8
T3 construct: made in house
Procedure: as §1, §2

[7] = target: T4, galectin-4N (N-terminal domain) (Homo sapiens, UniProt P56470); assay: Competitive fluorescence polarization assay, galectin-4N; format: binding; conditions: mean ± SEM of n = 4–8
T4 construct: galectins (N = N-terminal domain, C = C-terminal domain); made in house
T4 sequence (P56470 19-150 limits assumed): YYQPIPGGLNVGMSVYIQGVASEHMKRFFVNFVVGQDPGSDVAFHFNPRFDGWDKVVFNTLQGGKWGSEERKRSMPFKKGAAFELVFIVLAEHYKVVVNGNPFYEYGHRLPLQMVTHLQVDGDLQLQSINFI
Procedure: as §1, §2

[8] = target: T5, galectin-4C (C-terminal domain) (Homo sapiens, UniProt P56470); assay: Competitive fluorescence polarization assay, galectin-4C; format: binding; conditions: mean ± SEM of n = 4–8
T5 construct: galectins (N = N-terminal domain, C = C-terminal domain); made in house
T5 sequence (P56470 194-323 limits assumed): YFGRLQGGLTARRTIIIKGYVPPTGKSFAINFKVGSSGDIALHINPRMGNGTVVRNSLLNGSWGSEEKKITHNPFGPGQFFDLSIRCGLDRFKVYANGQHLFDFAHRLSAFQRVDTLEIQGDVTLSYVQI
Procedure: as §1, §2

[9] = target: T6, galectin-8C (C-terminal domain) (Homo sapiens, UniProt O00214); assay: Competitive fluorescence polarization assay, galectin-8C; format: binding; conditions: mean ± SEM of n = 4–8
T6 construct: galectins (N = N-terminal domain, C = C-terminal domain)
T6 sequence (O00214 187-317 limits assumed): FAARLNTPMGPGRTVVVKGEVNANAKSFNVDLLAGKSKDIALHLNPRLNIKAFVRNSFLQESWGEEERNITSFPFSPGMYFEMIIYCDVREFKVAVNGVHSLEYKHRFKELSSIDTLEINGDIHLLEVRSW

[10] = target: T7, galectin-9N (N-terminal domain) (Homo sapiens, UniProt O00182); assay: Competitive fluorescence polarization assay, galectin-9N; format: binding; conditions: mean ± SEM of n = 4–8
T7 construct: galectins (N = N-terminal domain, C = C-terminal domain); made in house
Procedure: as §1, §2

[11] = target: T8, galectin-9C (C-terminal domain) (Homo sapiens, UniProt O00182); assay: Competitive fluorescence polarization assay, galectin-9C; format: binding; conditions: mean ± SEM of n = 4–8
T8 construct: galectins (N = N-terminal domain, C = C-terminal domain); made in house
Procedure: as §1, §2

galectin-2 = target: T9, galectin-2 (Homo sapiens, UniProt P05162); assay: Competitive fluorescence polarization assay, galectin-2; format: binding; conditions: mean ± SEM of n = 4–8
T9 sequence (P05162 1-132): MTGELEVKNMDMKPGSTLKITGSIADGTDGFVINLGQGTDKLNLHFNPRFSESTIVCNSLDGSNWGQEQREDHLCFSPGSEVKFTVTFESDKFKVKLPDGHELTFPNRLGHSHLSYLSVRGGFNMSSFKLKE

galectin-7 = target: T10, galectin-7 (Homo sapiens, UniProt P47929); assay: Competitive fluorescence polarization assay, galectin-7; format: binding; conditions: mean ± SEM of n = 4–8
T10 construct: made in house
Procedure: as §1, §2

T7 sequence (O00182 17-148 limits assumed): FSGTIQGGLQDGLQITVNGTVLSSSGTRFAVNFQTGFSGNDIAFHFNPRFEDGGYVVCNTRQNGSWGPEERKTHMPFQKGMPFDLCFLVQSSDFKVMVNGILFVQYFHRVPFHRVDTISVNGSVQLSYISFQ
T3 sequence (P17931 whole entry): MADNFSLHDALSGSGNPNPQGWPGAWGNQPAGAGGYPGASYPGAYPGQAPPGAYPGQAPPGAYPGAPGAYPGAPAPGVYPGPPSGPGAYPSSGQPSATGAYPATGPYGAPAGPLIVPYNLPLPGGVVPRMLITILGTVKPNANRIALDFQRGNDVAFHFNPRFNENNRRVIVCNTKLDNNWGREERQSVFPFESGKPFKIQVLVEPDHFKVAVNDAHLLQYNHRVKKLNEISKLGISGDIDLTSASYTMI
T8 sequence (O00182 227-355 limits assumed): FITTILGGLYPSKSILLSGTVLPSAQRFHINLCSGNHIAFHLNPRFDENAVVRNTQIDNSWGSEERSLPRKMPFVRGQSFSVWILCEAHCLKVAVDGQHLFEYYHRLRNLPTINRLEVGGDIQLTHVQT
T2 sequence (P09382 whole entry): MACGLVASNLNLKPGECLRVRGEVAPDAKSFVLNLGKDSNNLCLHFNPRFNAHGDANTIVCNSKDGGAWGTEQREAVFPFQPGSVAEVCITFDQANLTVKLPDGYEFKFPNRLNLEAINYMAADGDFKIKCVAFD
T10 sequence (P47929 whole entry): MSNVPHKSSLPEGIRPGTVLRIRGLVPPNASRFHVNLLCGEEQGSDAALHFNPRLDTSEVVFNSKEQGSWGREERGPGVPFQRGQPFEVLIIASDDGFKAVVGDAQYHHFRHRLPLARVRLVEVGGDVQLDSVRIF

Compound	Kd (galectin-1)	Kd (galectin-3)	Kd [7]	Kd [8]	Kd [1]	Kd [9]	Kd [10]	Kd [11]	Kd (galectin-2)	other results
Cn1c(CO[C@@H]2[C@@H](O)[C@@H](Sc3ccc(Cl)c(Cl)c3)O[C@H](CO)[C@@H]2O)nc2ccc(C(=O)O)cc21 [compound 1, reference compound]										affinity for galectin-8N relative to that of compound 6a [1]: about 25 fold; cell viability (MTS), K562 (K562 cancer cell line): None of the compounds decreased the viability; cell viability (MTS), MDA-MB-231 [2]: None of the compounds decreased the viability; also recorded: no effect on the viability; direct cytotoxicity (MTS), PBMCs [3]: lack of direct cytotoxicity; reduction in IL-6 secretion ([4]; 10 μM, effect not significant): about 15%; reduction of IL-6 secretion ([4]; 100 μM): about 65%; reduction in IL-8 secretion ([5]; 10 μM, effect not significant): ~20%; reduction of IL-8 secretion ([5]; 100 μM): about 55%
OC[C@H]1Oc2cc(Cc3ccc(F)cc3)cc3c2[C@@H](OC3)[C@H]1O [compound 2]										selectivity for galectin-8N over galectin-1 [6]: about 2 fold; selectivity for galectin-8N over galectin-3 [6]: 23 fold
OC[C@H]1OC=C[C@@H](O)[C@H]1O [compound 3, D-galactal]	1600 ± 140 µM	3300 ± 650 µM	2400 ± 13 µM	5300 µM	1300 ± 72 µM	4100 ± 470 µM	> 1500 µM	4800 µM		higher affinity for galectin-8N compared to the methyl β-D-galactopyranoside [1]: 5 fold
COC(=O)c1ccc2ccc(CO[C@@H]3C=CO[C@H](CO)[C@@H]3O)nc2c1 [compound 8]	> 1500 µM	1700 ± 40 µM	1300 ± 12 µM	3700 ± 250 µM	230 ± 16 µM	> 1500 µM	1000 ± 51 µM	> 1500 µM	> 1500 µM	
O=C(O)c1ccc2ccc(CO[C@@H]3C=CO[C@H](CO)[C@@H]3O)nc2c1 [compound 9]	3600 µM	590 ± 78 µM	> 1500 µM	2800 ± 770 µM	48 ± 6 µM	4700 ± 22 µM	1800 ± 160 µM	> 1500 µM	1100 ± 200 µM	Kd (galectin-7): > 1500 µM
methyl β-D-galactomalonyl phenyl ester										Kd [6]: 5.7 µM
